According to publication PMC3865801 (Journal of Medicinal Chemistry, 2013):
Read-outs that look alike come from different tables or passages of the source.

What was measured:
[1] = target: T1, purified recombinant perforin (Mus musculus, UniProt P10820); assay: cell-based; format: cell-based; details: lysis of Jurkat cells by purified recombinant perforin, 51Cr release, 0.1% BSA; average of at least three determinations; read-out: inhibition of Jurkat cell lysis, IC50
T1 sequence (P10820 21-554): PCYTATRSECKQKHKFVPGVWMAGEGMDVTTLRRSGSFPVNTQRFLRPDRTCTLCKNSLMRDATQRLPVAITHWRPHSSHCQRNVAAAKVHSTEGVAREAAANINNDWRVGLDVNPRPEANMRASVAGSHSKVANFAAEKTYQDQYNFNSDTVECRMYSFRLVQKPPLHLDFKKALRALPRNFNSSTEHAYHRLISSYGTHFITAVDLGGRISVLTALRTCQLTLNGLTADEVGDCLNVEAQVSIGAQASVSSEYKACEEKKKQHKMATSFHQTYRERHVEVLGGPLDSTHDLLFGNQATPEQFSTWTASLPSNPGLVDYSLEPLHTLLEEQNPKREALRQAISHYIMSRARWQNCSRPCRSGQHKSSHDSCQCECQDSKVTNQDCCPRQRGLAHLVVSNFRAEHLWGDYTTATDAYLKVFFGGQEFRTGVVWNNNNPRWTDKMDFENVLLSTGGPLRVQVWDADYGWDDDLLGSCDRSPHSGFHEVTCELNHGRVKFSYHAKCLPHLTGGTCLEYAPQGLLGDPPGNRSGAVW
Experimental: The ability of the compounds to inhibit the lysis of nucleated (Jurkat T lymphoma) cells in the presence of 0.1% BSA was measured by release of ^51Cr label. Jurkat target cells were labeled by incubation in medium with 100 μCi ^51Cr for 1 h. The cells were then washed three times to remove unincorporated isotope and resuspended at 1 × 10^5 cells per milliliter in RPMI buffer supplemented with 0.1% BSA. […] Each data point was performed in triplicate, and an IC50 was calculated from the range of concentrations described above.

[2] = target: T2, perforin produced by an intact NK cell line (KHYG-1) (Homo sapiens, UniProt P14222); assay: KHYG-1 cytotoxicity assay: perforin-induced lysis of K562 target cells co-incubated with KHYG-1 NK cells; format: cell-based; details: 20 μM, K562 targets, ± SEM
T2 construct: the perforin is delivered by a functional NK cell; endogenous in cells; host or cells: KHYG-1 NK cells (K562 target cells)
T2 sequence (P14222 22-555): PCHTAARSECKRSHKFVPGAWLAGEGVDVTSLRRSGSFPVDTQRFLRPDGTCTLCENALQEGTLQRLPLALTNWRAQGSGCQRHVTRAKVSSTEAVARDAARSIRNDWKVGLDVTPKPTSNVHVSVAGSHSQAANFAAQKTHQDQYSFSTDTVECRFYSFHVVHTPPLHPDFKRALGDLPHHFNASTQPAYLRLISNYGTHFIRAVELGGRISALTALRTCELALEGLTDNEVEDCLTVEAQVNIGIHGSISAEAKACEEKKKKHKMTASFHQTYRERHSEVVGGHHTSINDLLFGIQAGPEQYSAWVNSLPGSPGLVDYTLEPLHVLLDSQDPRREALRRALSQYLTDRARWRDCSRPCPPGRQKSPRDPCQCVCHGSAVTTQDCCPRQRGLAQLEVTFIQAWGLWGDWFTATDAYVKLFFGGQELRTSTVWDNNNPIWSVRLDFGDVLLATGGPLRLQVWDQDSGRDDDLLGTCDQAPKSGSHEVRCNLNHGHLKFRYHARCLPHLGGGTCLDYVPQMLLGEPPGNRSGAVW
Experimental: KHYG-1 cells were washed and resuspended in RPMI + 0.1% BSA at 4 × 10^5 cells/mL, and an amount of 50 μL of KHYG-1 cells was dispensed to each well of a 96-well V-bottom plate. RPMI (50 μL) + 0.1% BSA or 10% (final concentration) of serum was added to each well. Then test compounds were added to KHYG-1 cells at various concentrations up to 20 μM and incubated at room temperature for 20 min. 1 × 10^6 K562 target cells were labeled with 75 μCi ^51Cr in 200 μL of RPMI for 90 min at 37 °C. Cells were washed as described above and resuspended in 5 mL of RPMI + 0.1% BSA. […] The percentage of specific cytotoxicity was calculated using the following formula: [drawing 4] and expressed as the mean of triplicate assays ± standard error of the mean.

[3] = Toxicity to KHYG-1 NK cells (Trypan blue exclusion); format: cell-based, human; details: human, KHYG-1 NK cells; 20 μM, 4 h exposure, viability after 24 h, Trypan blue, ± SEM
Experimental: The toxicity assay was carried out in exactly the same manner as the killing assay above, but instead of adding the labeled K562 target cells, 100 μL of RPMI 0.1% BSA was added. Cells were incubated for 4 h at 37 °C and then washed ×3 in RPMI + 0.1% BSA. […] Trypan blue was added to each well. Viable (clear) cells and total (clear + blue) cells were counted, and the percentage of viable cells was calculated compared to DMSO treated cell control (% viability).

[4] = Aqueous solubility of parent compound and sodium salt; details: aqueous medium (not further specified)
[5] = 10% mouse serum, read-out: KHYG-1 inhibition (% at 20 μM), 10% serum
[6] = no serum, vs untreated control, read-out: KHYG-1 inhibition (% at 20 μM), no serum

| SMILES | IC50 [1] [nM] | inhibition at 20 µM [2, 5] [%] | inhibition at 20 µM [2, 6] [%] | viability at 4 h, 20 µM [3] [%] | solubility [4] [µg/mL] |
| --- | --- | --- | --- | --- | --- |
| O=C1NC(=O)/C(=C\c2ccc(-c3ccc4c(c3)CNC4=O)s2)N1 [compound 136] | 400 | 50 ± 7.1 | 49 ± 9.8 | 93 ± 3 | 11.6 |
| O=C1NC(=S)N/C1=C/c1ccc(-c2ccc3c(c2)CN(CCCO)C3=O)s1 [compound 126] | 530 | 17 ± 3 | 48 ± 7.9 | 90 ± 3 | 1.78 |
| O=C1NC(=S)N/C1=C/c1ccc(-c2ccc3c(c2)CNC3=O)cn1 [compound 207] | 630 | 13 ± 3.8 | 43 ± 5.4 | 92 ± 2.6 | 0.59 |
| O=C1NC(=S)N/C1=C/c1ccc(-c2ccc3c(c2)CN(CCO)C3=O)s1 [compound 125, (E,Z)-2-(2-Hydroxyethyl)-5-(5-((5-oxo-2-thioxoimidazolidin-4-ylidene)methyl)thiophen-2-yl)isoindolin-1-one] | 780 | 24 ± 3.4 | 43 ± 5.8 | 81 ± 0.5 | 43 |
| O=C1NC(=S)N/C1=C/c1ccc(-c2ccc3c(c2)CNC3=O)s1 [compound 118] | 2550 | 55 ± 6.5 | 56 ± 7.2 | 95 ± 3.5 | 0.54 |
| CCOC(=O)N1Cc2cc(-c3ccc(/C=C4/NC(=S)NC4=O)s3)ccc2C1=O [compound 129] | 550 | 35 ± 9.5 | 46 ± 5.9 | 93 ± 4.1 | 0.18 |
| O=C1NC(=S)N/C1=C/c1ccc(-c2ccc3c(c2)COC3=O)s1 [compound 4] | 780 | 38.9 ± 3.5 | 53 ± 2.6 | 88 ± 3 | 23 |
| CN1Cc2cc(-c3ccc(/C=C4/NC(=S)NC4=O)s3)ccc2C1=O [compound 119, (E,Z)-2-Methyl-5-(5-((5-oxo-2-thioxoimidazolidin-4-ylidene)methyl)thiophen-2-yl)isoindolin-1-one] |  | 37 ± 2.4 | 42 ± 5.5 | 28 ± 1.5 | 0.13 |
| O=C1NC(=S)N/C1=C/c1ccc(-c2ccc3c(c2)C(=O)NCC3)s1 [compound 168] | 640 | 23 ± 7.1 | 51 ± 4 | 87 ± 4.1 | 0.13 |
